Results: the NIST ThermoML archive (doi:10.1021/acs.jced.5b00051)
Numbers after ± are expanded uncertainties.

experiment: molar heat capacity at constant pressure; conditions: 275.15 K; 101.33 kPa; Liquid; Large sample (1 g) DSC

SMILES | molar heat capacity at constant pressure [J/K/mol]
COCCOCCOCCOCCO [3,6,9,12-tetraoxatridecanol] | 445.4 ± 6.9
CCCCOCCOCCO [3,6-dioxa-1-decanol] | 351.2 ± 5.4
CCOCCOCCO [3,6-dioxa-1-octanol] | 296.5 ± 4.6

same assay, conditions: 277.15 K; 101.33 kPa; Liquid; Large sample (1 g) DSC

SMILES | molar heat capacity at constant pressure [J/K/mol]
COCCOCCOCCOCCO [3,6,9,12-tetraoxatridecanol] | 445.6 ± 6.9
CCCCOCCOCCO [3,6-dioxa-1-decanol] | 351.9 ± 5.5
CCOCCOCCO [3,6-dioxa-1-octanol] | 296.8 ± 4.6

same assay, conditions: 279.15 K; 101.33 kPa; Liquid; Large sample (1 g) DSC

SMILES | molar heat capacity at constant pressure [J/K/mol]
COCCOCCOCCOCCO [3,6,9,12-tetraoxatridecanol] | 445.8 ± 6.9
CCCCOCCOCCO [3,6-dioxa-1-decanol] | 352.7 ± 5.5
CCOCCOCCO [3,6-dioxa-1-octanol] | 297.2 ± 4.6

same assay, conditions: 281.15 K; 101.33 kPa; Liquid; Large sample (1 g) DSC

SMILES | molar heat capacity at constant pressure [J/K/mol]
COCCOCCOCCOCCO [3,6,9,12-tetraoxatridecanol] | 446 ± 6.9
CCCCOCCOCCO [3,6-dioxa-1-decanol] | 353.4 ± 5.5
CCOCCOCCO [3,6-dioxa-1-octanol] | 297.6 ± 4.6

same assay, conditions: 283.15 K; 101.33 kPa; Liquid; Large sample (1 g) DSC

SMILES | molar heat capacity at constant pressure [J/K/mol]
COCCOCCOCCOCCO [3,6,9,12-tetraoxatridecanol] | 446.2 ± 6.9
CCCCOCCOCCO [3,6-dioxa-1-decanol] | 354.2 ± 5.5
CCOCCOCCO [3,6-dioxa-1-octanol] | 298 ± 4.6

same assay, conditions: 285.15 K; 101.33 kPa; Liquid; Large sample (1 g) DSC

SMILES | molar heat capacity at constant pressure [J/K/mol]
COCCOCCOCCOCCO [3,6,9,12-tetraoxatridecanol] | 446.5 ± 6.9
CCCCOCCOCCO [3,6-dioxa-1-decanol] | 354.9 ± 5.5
CCOCCOCCO [3,6-dioxa-1-octanol] | 298.5 ± 4.6

same assay, conditions: 287.15 K; 101.33 kPa; Liquid; Large sample (1 g) DSC

SMILES | molar heat capacity at constant pressure [J/K/mol]
COCCOCCOCCOCCO [3,6,9,12-tetraoxatridecanol] | 446.8 ± 6.9
CCCCOCCOCCO [3,6-dioxa-1-decanol] | 355.7 ± 5.5
CCOCCOCCO [3,6-dioxa-1-octanol] | 298.9 ± 4.6

same assay, conditions: 289.15 K; 101.33 kPa; Liquid; Large sample (1 g) DSC

SMILES | molar heat capacity at constant pressure [J/K/mol]
COCCOCCOCCOCCO [3,6,9,12-tetraoxatridecanol] | 447.1 ± 6.9
CCCCOCCOCCO [3,6-dioxa-1-decanol] | 356.5 ± 5.5
CCOCCOCCO [3,6-dioxa-1-octanol] | 299.4 ± 4.6

same assay, conditions: 291.15 K; 101.33 kPa; Liquid; Large sample (1 g) DSC

SMILES | molar heat capacity at constant pressure [J/K/mol]
COCCOCCOCCOCCO [3,6,9,12-tetraoxatridecanol] | 447.4 ± 6.9
CCCCOCCOCCO [3,6-dioxa-1-decanol] | 357.3 ± 5.5
CCOCCOCCO [3,6-dioxa-1-octanol] | 299.9 ± 4.6

same assay, conditions: 293.15 K; 101.33 kPa; Liquid; Large sample (1 g) DSC

SMILES | molar heat capacity at constant pressure [J/K/mol]
COCCOCCOCCOCCO [3,6,9,12-tetraoxatridecanol] | 447.7 ± 6.9
CCCCOCCOCCO [3,6-dioxa-1-decanol] | 358.1 ± 5.5
CCOCCOCCO [3,6-dioxa-1-octanol] | 300.4 ± 4.7

same assay, conditions: 295.15 K; 101.33 kPa; Liquid; Large sample (1 g) DSC

SMILES | molar heat capacity at constant pressure [J/K/mol]
COCCOCCOCCOCCO [3,6,9,12-tetraoxatridecanol] | 448.1 ± 6.9
CCCCOCCOCCO [3,6-dioxa-1-decanol] | 359 ± 5.6
CCOCCOCCO [3,6-dioxa-1-octanol] | 300.9 ± 4.7

same assay, conditions: 297.15 K; 101.33 kPa; Liquid; Large sample (1 g) DSC

SMILES | molar heat capacity at constant pressure [J/K/mol]
COCCOCCOCCOCCO [3,6,9,12-tetraoxatridecanol] | 448.4 ± 6.9
CCCCOCCOCCO [3,6-dioxa-1-decanol] | 359.8 ± 5.6
CCOCCOCCO [3,6-dioxa-1-octanol] | 301.4 ± 4.7

same assay, conditions: 298.15 K; 101.33 kPa; Liquid; Large sample (1 g) DSC

SMILES | molar heat capacity at constant pressure [J/K/mol]
COCCOCCOCCOCCO [3,6,9,12-tetraoxatridecanol] | 448.6 ± 6.9
CCCCOCCOCCO [3,6-dioxa-1-decanol] | 360.2 ± 5.6
CCOCCOCCO [3,6-dioxa-1-octanol] | 301.7 ± 4.7

same assay, conditions: 299.15 K; 101.33 kPa; Liquid; Large sample (1 g) DSC

SMILES | molar heat capacity at constant pressure [J/K/mol]
COCCOCCOCCOCCO [3,6,9,12-tetraoxatridecanol] | 448.8 ± 7
CCCCOCCOCCO [3,6-dioxa-1-decanol] | 360.6 ± 5.6
CCOCCOCCO [3,6-dioxa-1-octanol] | 301.9 ± 4.7

same assay, conditions: 301.15 K; 101.33 kPa; Liquid; Large sample (1 g) DSC

SMILES | molar heat capacity at constant pressure [J/K/mol]
COCCOCCOCCOCCO [3,6,9,12-tetraoxatridecanol] | 449.2 ± 7
CCCCOCCOCCO [3,6-dioxa-1-decanol] | 361.5 ± 5.6
CCOCCOCCO [3,6-dioxa-1-octanol] | 302.5 ± 4.7

same assay, conditions: 303.15 K; 101.33 kPa; Liquid; Large sample (1 g) DSC

SMILES | molar heat capacity at constant pressure [J/K/mol]
COCCOCCOCCOCCO [3,6,9,12-tetraoxatridecanol] | 449.6 ± 7
CCCCOCCOCCO [3,6-dioxa-1-decanol] | 362.4 ± 5.6
CCOCCOCCO [3,6-dioxa-1-octanol] | 303.1 ± 4.7

same assay, conditions: 305.15 K; 101.33 kPa; Liquid; Large sample (1 g) DSC

SMILES | molar heat capacity at constant pressure [J/K/mol]
COCCOCCOCCOCCO [3,6,9,12-tetraoxatridecanol] | 450 ± 7
CCCCOCCOCCO [3,6-dioxa-1-decanol] | 363.3 ± 5.6
CCOCCOCCO [3,6-dioxa-1-octanol] | 303.7 ± 4.7
